From US9777054B2, “Soluble fibrin inhibitory peptides and uses thereof” (ENSION INC., priority 2006, dated 2017)
Entries after “also recorded” stand apart in the source; their conditions may differ. No end group written: not given here.

Tests used:
A375 cells = assay: Monocyte adherence to tumor cells under flow conditions (FCS2 perfusion stage incubator); type: cell-based, human
Method: Human peripheral blood monocytes, isolated by density centrifugation and adherence were labeled with the carbocyanine dye (DiI, C18; Molecular Probes, Eugene, Oreg.). They were passed across adherent soluble fibrin treated or untreated tumor cells at a shear force corresponding to that present in small blood capillaries for 1 h (FIGS. 7A and 7B).
The number of tumor cells and adherent monocytes were counted in the images and leukocyte adherence was expressed as the number of leukocytes per tumor cell.
Lyophilized murine anti-human monoclonal blocking antibodies directed against αLβ2 (clone 25.3) and CD54 (clone 84H10) were obtained from Beckman-Coulter (Miami, Fla.), as were purified immunoglobulin matched isotypic controls (IgG1 (mouse) Clone 679.1Mc7). Blocking monoclonal anti-£\M£]2 (clone ICRF44) was obtained from PharMingen (BD Biosciences, San Jose, Calif.). All antibody inhibition experiments were performed using pre-incubation of target cells with 5 μg antibody/106 cells. Experiments were performed in triplicate wells and the results were expressed as the mean+SD for three separate experiments).
To simulate the fluid shear stresses present in vivo, coverslips containing Calcein AM labeled, adherent A375 were loaded into the FCS2 stage incubator (Bioptechs Inc., Butler, Pa.) and mounted on the stage of a Leica DMIRB inverted fluorescence microscope equipped with a Hamamatsu Color Chilled 3CCD camera (C5810 model) attached to a computer for data acquisition.
The FCS2 incubator is a closed near-laminar flow, temperature-controlled perfusion chamber which facilitates direct observation and scanning of the cells on the coverslip during perfusion with solutions or cell suspensions. It was designed to maintain accurate thermal control and allow high-volume near-laminar flow perfusion. A fluid pathway was formed (Dimensions 0.5 mm×14 mm×25 mm) by separating the microaqueduct slide from the coverslip containing cells with a single silicone gasket with a rectangular bore, generating nearlaminar flow conditions during perfusion. The stage incubator was initially connected to a peristaltic pump on the afferent side using 0.062 inch bore S/P medical grade silicone tubing (Fisher Scientific, Suwanee, Ga.), with a three way in-line tap closed to the incubator inlet. The efferent side was connected to waste. After connection of the electronic temperature control, the coverslips were perfused with RPMI to briefly buffer the cells at 37° C. for fifteen minutes (flow rate of 0.5 ml/min). The inlet was then connected to the tube containing the appropriately treated monocyte suspension (3 mL). The efferent tubing was also connected to the same tube, and Di-I (Gant et al., 1992) labelled monocytes were recirculated across the tumor cells for 1 h, after which, the tubing was set up to the initial configuration and the cells were again washed with RPMI for 10 min to remove unbound monocytes.
Individual still images in five randomly chosen fields of view were captured and stored on the computer. The number of monocytes (red) and tumor cells (green) were counted in each field of view and the mean monocyte/tumor cell ratio was calculated. The wall shear stress was calculated using the momentum balance for a Newtonian fluid. The viscosity of water at 37° C. was used as an approximation of the viscosity of the buffer used (RPMI 1640; 0.007 poise). As described in the following equation, the wall shear stress experienced by the monolayer is equal to: T=3 μQ/2a^2b, where T=wall shear stress, μ=coefficient of viscosity (0.007 Poise), Q=volumetric flow rate (0.0083 cm3/s), a=half channel height (0.025 cm), and b=channel width (1.5 cm). The wall shear rate is given by T/μ. […]

fibrinogen = target: T1, fibrinogen (Homo sapiens, UniProt P02679); assay: Thrombin induced clotting of purified fibrinogen; type: biochemical; conditions: fibrinogen 0.5 mg/ml, thrombin 0.125 U/ml, peptide 4 mmol/L, room temperature
T1 construct: purchased American Diagnostica Inc., Greenwich, Conn
T1 sequence (P02679 27-437 isoform P02679-2 limits assumed): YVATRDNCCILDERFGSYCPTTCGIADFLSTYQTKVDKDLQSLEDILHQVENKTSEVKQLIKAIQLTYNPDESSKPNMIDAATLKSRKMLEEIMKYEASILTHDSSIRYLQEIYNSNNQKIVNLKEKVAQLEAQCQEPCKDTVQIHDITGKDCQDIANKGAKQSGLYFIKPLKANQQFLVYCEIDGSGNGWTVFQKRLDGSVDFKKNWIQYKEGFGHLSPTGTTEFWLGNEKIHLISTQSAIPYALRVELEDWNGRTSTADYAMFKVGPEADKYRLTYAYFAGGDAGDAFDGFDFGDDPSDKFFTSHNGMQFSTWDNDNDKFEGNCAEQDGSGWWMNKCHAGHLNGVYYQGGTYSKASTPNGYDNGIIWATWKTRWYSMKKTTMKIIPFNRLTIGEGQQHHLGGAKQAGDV
T1 sequence (P02671 20-629 partner limits assumed): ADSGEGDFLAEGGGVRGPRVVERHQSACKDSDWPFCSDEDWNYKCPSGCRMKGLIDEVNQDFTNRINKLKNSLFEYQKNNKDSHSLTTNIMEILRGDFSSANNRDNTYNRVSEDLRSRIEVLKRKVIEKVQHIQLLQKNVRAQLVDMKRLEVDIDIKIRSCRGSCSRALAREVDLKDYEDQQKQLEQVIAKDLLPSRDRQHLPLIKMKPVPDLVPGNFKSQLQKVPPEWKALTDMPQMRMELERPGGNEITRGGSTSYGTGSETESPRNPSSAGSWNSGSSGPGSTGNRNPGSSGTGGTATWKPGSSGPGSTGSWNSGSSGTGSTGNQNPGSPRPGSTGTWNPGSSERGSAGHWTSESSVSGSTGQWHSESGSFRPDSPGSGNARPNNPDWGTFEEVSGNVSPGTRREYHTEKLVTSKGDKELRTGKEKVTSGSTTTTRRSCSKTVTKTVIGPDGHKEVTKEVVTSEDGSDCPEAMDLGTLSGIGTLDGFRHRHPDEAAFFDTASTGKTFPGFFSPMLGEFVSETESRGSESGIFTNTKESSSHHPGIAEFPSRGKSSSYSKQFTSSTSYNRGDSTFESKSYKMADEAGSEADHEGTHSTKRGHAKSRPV
T1 sequence (P02675 31-491 partner): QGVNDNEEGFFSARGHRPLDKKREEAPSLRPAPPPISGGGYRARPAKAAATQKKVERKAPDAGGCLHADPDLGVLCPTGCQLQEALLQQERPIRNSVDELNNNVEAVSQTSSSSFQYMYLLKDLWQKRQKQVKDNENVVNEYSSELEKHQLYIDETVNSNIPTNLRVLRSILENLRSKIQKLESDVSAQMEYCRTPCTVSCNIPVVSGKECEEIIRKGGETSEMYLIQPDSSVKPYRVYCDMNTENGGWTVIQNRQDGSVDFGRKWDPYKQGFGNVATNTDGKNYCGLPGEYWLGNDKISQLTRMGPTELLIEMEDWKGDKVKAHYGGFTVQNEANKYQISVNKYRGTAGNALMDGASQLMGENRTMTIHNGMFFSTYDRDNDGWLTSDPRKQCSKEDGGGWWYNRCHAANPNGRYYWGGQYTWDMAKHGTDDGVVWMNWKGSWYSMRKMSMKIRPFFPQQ
Method: Experiments were performed to determine if the specific fibrin(ogen) adherence inhibitors also affected (1) fibrinogen clotting in the presence of thrombin, or (2) normal coagulation in recalcified plasma.
Thrombin (0.625 μl (stock 100 U/ml) was added to RPMI 1640 medium containing 25 μl (stock 10 mg/ml) […] or in the presence of 4 mmol/L specific peptide or peptide combination in a total volume of 1 ml. The tubes were left at room temperature and clotting was determined by observed gelation of the solution every 30 s, and the approximate clotting time was recorded. An additional control was also tested in which the fibrin polymerization inhibitor GPRP-NH2 was added to fibrinogen in the presence of P1-P4 prior to thrombin addition. The tube was left at room temperature to determine if clotting was observed.

[1] = sFn treated with single peptide, incubated with one cell type (P3 tumor cells / P4 monocytes), other cell type untreated
[2] = one cell type treated with peptide only (P1 tumor cells / P2 monocytes), the other cell type with sFn
[3] = one cell type treated with single peptide then sFn (P1 A375 / P2 monocytes), other cell type with sFn (Bars 4, 5)
[4] = effector and tumor cells both pre-treated with single component of the sFn mixture

## Gly-Pro-Arg-Pro-amide (GPRP-NH2) [reference compound]
A375 cells; effector and tumor cells both pre-treated with single component of the sFn mixture, listed as GPRP
  effect on monocyte adherence: did not significantly inhibit adherence
A375 cells; effector and tumor cells both pre-treated with single component of the sFn mixture, listed as GPRPNH2
  effect on monocyte adherence: no significant (P>0.05 compared to untreated cell adherence) inhibition was observed
fibrinogen
  clotting time: > 15 min

## KFGDPLGYEDVIPEADREG (CHAIN peptide comprising the soluble fibrin protein-binding domain in soluble fibin) [Peptide P4]
A375 cells; sFn pre-treated with P4 and incubated with monocytes, tumor cells incubated with sFn (Bar 7)
  inhibition of monocyte adherence: no inhibition was observed
A375 cells; [1]
  inhibition of monocyte adherence: no inhibition was observed

## KVILPRGGSVLVTC (CHAIN peptide comprising amino acids 8-21 on the ICAM-1 first immunoglobulin domain) [Peptide P3]
A375 cells; [1]
  inhibition of monocyte adherence: little or no inhibition was observed

## NNQKIVNLKEKVAQLEA (CHAIN peptide comprising the cell-binding domain in soluble fibin.) [Peptide P1]
A375 cells; [2]
  effect on monocyte adherence: Inhibition was still observed; also recorded: inhibited adherence to a similar level to that of sFn treatment of both cells
A375 cells; [3]
  inhibition of monocyte adherence: inhibition was still observed

## YKSMKKTTMKIIPFNRLTIF (CHAIN peptide comprising the cell-binding domain in soluble fibin.) [Peptide P2]
A375 cells; [2]
  effect on monocyte adherence: Inhibition was also observed; also recorded: inhibited adherence to a similar level to that of sFn treatment of both cells
A375 cells; [3]
  inhibition of monocyte adherence: inhibition was still observed

## fibrinogen [reference compound]
A375 cells; [4]
  effect on monocyte adherence: no significant (P>0.05 compared to untreated cell adherence) inhibition was observed; also recorded: did not significantly inhibit adherence

## thrombin [reference compound]
A375 cells; [4]
  effect on monocyte adherence: no significant (P>0.05 compared to untreated cell adherence) inhibition was observed; also recorded: did not significantly inhibit adherence
